Laboratory results as given in patent US11370791B2, “Solid polymorphs of a FLNA-binding compound and its hydrochloride salts” (Pain Therapeutics, Inc., priority 2019, dated 2022).
“Also recorded” adds a separate entry of the source. Structures can show the parent of a compound that is named as a salt. Where two headings read alike, the source gives them in different places.

What was measured:
[1] = pKa analysis, potentiometric titration; assay type: physicochemical; settings: 22° C., ISA water (ionic strength 0.15, KCl)
Experimental: The Compound titration was performed at 22° C. in ISA water. The weighed amount of TC (2.40 mg) was placed into a titration vial. ISA water (15 mL) was delivered automatically to the vial. The pH value of the solution was adjusted to 3 by adding 0.5 M HCl automatically. The titration with 0.5 M KOH was performed automatically until a pH value of 11.5 was reached. One additional mL of ISA water was added to the titration vial to perform the second titration and third titration, per titration respectively. The datasets for the three titrations were combined in the Refinement Pro program to create a Multiset for pKa calculation.
First, the pKa measurements and calculations for Compound C0105 were performed with the presumption that there were two basic ionizable groups. […] Then the pKa calculations for the Compound were performed with the presumption that there was one basic ionizable group.

filamin-A (FLNA) = biological target: T1, filamin-A (FLNA) (Homo sapiens, UniProt P21333); settings: higher affinity binding site of the two sites; membrane preparation from A7 or SK-N-MC cells; cited from earlier work
T1 construct: in a membrane preparation from A7 cells or SK-N-MC cells; endogenous in cells; host or cells: A7 cells or SK-N-MC cells (membrane preparation)
T1 sequence (P21333 whole entry): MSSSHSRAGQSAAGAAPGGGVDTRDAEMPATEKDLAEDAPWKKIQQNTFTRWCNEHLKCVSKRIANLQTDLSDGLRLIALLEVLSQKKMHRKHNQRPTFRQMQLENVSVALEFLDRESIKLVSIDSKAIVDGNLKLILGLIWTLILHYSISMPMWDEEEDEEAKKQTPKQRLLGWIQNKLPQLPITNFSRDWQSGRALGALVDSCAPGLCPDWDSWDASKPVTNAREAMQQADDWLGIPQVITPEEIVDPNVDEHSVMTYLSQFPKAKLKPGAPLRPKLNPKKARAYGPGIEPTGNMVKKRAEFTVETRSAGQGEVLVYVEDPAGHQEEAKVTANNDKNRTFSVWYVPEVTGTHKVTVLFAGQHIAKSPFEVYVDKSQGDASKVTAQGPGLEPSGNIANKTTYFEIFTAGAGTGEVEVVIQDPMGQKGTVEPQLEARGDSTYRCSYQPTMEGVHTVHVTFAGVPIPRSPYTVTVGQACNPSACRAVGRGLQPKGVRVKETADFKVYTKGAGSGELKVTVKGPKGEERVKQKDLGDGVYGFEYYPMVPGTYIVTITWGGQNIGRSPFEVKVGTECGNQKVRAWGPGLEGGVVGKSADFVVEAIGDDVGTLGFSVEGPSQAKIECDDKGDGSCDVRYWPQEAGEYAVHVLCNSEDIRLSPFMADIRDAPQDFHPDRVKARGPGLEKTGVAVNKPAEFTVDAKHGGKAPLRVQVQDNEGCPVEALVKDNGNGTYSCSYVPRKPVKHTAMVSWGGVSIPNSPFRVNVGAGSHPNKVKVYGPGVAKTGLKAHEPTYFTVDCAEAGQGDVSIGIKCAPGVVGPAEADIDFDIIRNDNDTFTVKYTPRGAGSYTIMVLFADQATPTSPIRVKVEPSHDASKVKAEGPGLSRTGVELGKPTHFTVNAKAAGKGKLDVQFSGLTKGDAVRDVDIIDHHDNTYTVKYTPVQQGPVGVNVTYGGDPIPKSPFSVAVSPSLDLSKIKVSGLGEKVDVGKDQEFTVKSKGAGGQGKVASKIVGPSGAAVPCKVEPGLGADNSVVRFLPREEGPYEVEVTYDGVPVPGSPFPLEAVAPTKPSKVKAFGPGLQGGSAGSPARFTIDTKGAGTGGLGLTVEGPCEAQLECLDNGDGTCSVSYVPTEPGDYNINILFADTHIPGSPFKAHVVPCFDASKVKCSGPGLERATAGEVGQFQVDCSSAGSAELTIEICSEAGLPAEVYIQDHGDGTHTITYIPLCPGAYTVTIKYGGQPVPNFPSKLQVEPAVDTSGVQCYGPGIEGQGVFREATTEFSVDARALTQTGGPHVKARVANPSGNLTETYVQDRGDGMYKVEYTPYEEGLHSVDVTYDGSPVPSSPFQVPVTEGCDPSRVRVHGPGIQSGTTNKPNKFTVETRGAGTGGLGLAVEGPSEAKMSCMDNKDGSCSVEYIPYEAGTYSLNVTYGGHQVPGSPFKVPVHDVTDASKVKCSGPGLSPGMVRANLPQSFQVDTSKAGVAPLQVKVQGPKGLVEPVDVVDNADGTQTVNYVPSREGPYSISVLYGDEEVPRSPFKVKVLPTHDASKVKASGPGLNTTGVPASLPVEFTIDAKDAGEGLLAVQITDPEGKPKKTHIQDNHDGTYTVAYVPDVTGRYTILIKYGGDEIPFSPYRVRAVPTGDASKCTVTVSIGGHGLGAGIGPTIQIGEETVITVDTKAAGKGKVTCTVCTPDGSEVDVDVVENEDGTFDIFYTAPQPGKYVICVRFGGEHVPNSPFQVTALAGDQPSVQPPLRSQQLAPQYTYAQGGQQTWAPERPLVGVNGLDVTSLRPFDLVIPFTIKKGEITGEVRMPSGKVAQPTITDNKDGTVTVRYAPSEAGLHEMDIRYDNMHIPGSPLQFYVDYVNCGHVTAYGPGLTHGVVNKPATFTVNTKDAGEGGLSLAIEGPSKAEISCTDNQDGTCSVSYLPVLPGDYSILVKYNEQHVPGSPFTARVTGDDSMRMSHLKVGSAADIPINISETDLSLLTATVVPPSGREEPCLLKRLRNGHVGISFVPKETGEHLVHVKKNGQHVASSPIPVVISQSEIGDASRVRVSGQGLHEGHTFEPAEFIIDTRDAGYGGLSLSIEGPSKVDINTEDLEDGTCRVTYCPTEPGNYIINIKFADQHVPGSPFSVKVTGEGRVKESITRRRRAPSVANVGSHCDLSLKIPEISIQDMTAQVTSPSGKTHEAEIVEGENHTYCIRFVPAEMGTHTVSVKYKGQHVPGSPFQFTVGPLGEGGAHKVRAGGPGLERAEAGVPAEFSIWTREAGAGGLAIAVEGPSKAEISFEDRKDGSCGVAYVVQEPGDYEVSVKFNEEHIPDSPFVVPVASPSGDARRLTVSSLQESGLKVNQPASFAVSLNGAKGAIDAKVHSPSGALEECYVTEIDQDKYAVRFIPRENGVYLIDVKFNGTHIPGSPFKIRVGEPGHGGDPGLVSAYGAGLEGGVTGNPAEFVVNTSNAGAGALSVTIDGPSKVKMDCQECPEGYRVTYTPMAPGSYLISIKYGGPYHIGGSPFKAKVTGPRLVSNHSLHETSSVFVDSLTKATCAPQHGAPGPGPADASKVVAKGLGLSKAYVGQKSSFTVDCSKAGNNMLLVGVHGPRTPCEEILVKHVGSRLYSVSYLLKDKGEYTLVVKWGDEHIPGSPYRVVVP

[2] = 1 week stability studies (HPLC purity, XRPD, appearance); assay type: physicochemical; settings: for Observations T = 0 / HPLC Purity T = 0: start of stability study
Experimental: Each salt formed was exposed to environments of 40° C./75% RH (open vial), elevated temperature (80° C., open vial) and ambient light (about 22° C. in a closed vial), for 1 week to assess both chemical and physical stability. Resulting solids were analyzed by X-ray powder diffraction (XRPD) to establish if any changes had occurred and by HPLC to determine purity.

[3] = dynamic vapor sorption (DVS); assay type: physicochemical; settings: for hygroscopicity by DVS: 0%-90% RH; for hysteresis: at 0% RH
Experimental: Approximately 10 mg of sample was placed into a glass vapor sorption balance pan and loaded into a DVS-1 dynamic vapor sorption balance by Surface Measurement Systems. […] After completion of the sorption cycle, the sample was dried using the same procedure, from 90% RH down to 0% RH. The weight change during the sorption/desorption cycles were plotted, permitting the hygroscopic nature of the sample to be determined.

[4] = hydration studies, slurries in IPA/water mixtures; assay type: physicochemical; settings: for Observations, hydration study: IPA/water
[5] = solvent solubility screen; settings: for solubility: 40 °C
[6] = 40° C./75% RH, open vial, dihydrochloride monohydrate
[7] = 40° C./75% RH, dihydrochloride monohydrate
[8] = 80° C., open vial, dihydrochloride monohydrate
[9] = 80° C., dihydrochloride monohydrate
[10] = Ambient (light, about 22° C., closed vial)
[11] = Ambient (light, about 22° C., closed vial), dihydrochloride monohydrate
[12] = ambient, dihydrochloride monohydrate
[13] = between 70% and 0% RH, dihydrochloride monohydrate
[14] = 1,2-dichloroethene, organic solvent or mixture
[15] = 2-MeTHF, organic solvent or mixture
[16] = 2-butanol, organic solvent or mixture
[17] = 2-propanol, organic solvent or mixture
[18] = 2-propanol:water (10%), organic solvent or mixture
[19] = acetone, organic solvent or mixture
[20] = acetone:water (5%), organic solvent or mixture
[21] = acetone:water (20%), organic solvent or mixture
[22] = acetonitrile, organic solvent or mixture
[23] = cyclohexane, organic solvent or mixture
[24] = dimethylacetamide, organic solvent or mixture
[25] = dimethylsulfoxide, organic solvent or mixture
[26] = ethanol, organic solvent or mixture
[27] = ethyl acetate, organic solvent or mixture
[28] = heptane, organic solvent or mixture
[29] = isopropyl acetate, organic solvent or mixture
[30] = methanol, organic solvent or mixture
[31] = methyl acetate, organic solvent or mixture
[32] = methyl ethyl ketone, organic solvent or mixture
[33] = methyl isobutyl ketone, organic solvent or mixture
[34] = tert-butyl methyl ether, organic solvent or mixture
[35] = tetrahydrofuran, organic solvent or mixture
[36] = toluene, organic solvent or mixture

Compound: CN1CCC2(CC1)NCC(=O)N2Cc1ccccc1 [Compound C0105, 1-benzyl-8-methyl-1,4,8-triazaspiro[4.5]-decan-2-one]
- pKa ([1]; higher value): 8
- pKa ([1]; lower value): 1.5
- EC50, inhibition of [3H]NLX binding (filamin-A (FLNA)): 10^−12 to 10^−13 M

Compound: CN1CCC2(CC1)NCC(=O)N2Cc1ccccc1 [HCl Di-Salt Hydrate (Form 2), 1-benzyl-8-methyl-1,4,8-triazaspiro-[4.5]-decan-2-one dihydrochloride monohydrate]
- Observations T = One week ([2]; 40° C./75% RH, open vial): White solid
- HPLC Purity T = One week [2, 6]: 99.8%
- polymorphic form by XRPD after 1 week [2, 7]: increase in crystallinity
- Observations T = One week [2, 8]: white to off-white/orange; also recorded: Orange solid
- polymorphic form by XRPD after 1 week [2, 9]: did not indicate significant changes in polymorphic form
- Observations T = One week [2, 10]: White solid
- HPLC Purity T = One week [2, 11]: 99.5%
- polymorphic form by XRPD after 1 week [2, 12]: did not indicate significant changes in polymorphic form
- Observations T = 0 [2]: White solid
- HPLC Purity T = 0 ([2]; dihydrochloride monohydrate): 99.4%
- hygroscopicity by DVS ([3]; dihydrochloride monohydrate): less hygroscopic than Form 1 between 0% and 50% RH, but more hygroscopic than Form 1 by DVS analysis >50% RH; also recorded: hygroscopic above 50% RH
- hysteresis [3]: about 0.4%
- water uptake, sorption cycle ([3]; at 50% RH (0% to 50% RH), dihydrochloride monohydrate): about 0.2%
- water uptake, sorption cycle ([3]; at 80% RH, dihydrochloride monohydrate): about 9.9%
- mass decrease, desorption cycle [3, 13]: 6.77%
- post-DVS XRPD analysis ([3]; dihydrochloride monohydrate): increase in crystallinity
- Observations, hydration study ([4]; 5% water, water activity approx. 0.5): White suspension
- Observations, hydration study ([4]; 10% water, water activity approx. 0.7): White suspension
- Observations, hydration study ([4]; 40% water, water activity approx. 0.9): White suspension
- form change by XRPD on stirring in IPA/water mixtures ([4]; various IPA/water mixtures, 24 hours): no form change occurred

Compound: CN1CCC2(CC1)NCC(=O)N2Cc1ccccc1 [HCl Di-Salt Hydrate, Form 1, 1-benzyl-8-methyl-1,4,8-triazaspiro-[4.5]-decan-2-one dihydrochloride monohydrate]
- Observations T = One week ([2]; 40° C./75% RH, open vial): White solid
- HPLC Purity T = One week [2, 6]: 99.0%
- polymorphic form by XRPD after 1 week [2, 7]: No significant changes in polymorphic form
- HPLC Purity T = One week [2, 8]: 99.4%
- Observations T = One week [2, 8]: Off-white
- polymorphic form by XRPD after 1 week [2, 9]: No significant changes in polymorphic form
- Observations T = One week [2, 10]: White solid
- HPLC Purity T = One week [2, 11]: 99.4%
- polymorphic form by XRPD after 1 week [2, 12]: No significant changes in polymorphic form
- Observations T = 0 [2]: White solid
- HPLC Purity T = 0 ([2]; dihydrochloride monohydrate): 99.1%
- hygroscopicity by DVS ([3]; dihydrochloride monohydrate): hygroscopic above 50% RH
- final dry mass higher than the initial dry mass ([3]; at 0% RH following sorption and de-sorption profile): 0.13%
- largest hysteresis, difference in water uptake between sorption and de-sorption profile ([3]; at 50% RH): 0.78%
- water uptake, sorption cycle ([3]; at 90% RH, dihydrochloride monohydrate): about 8.26%
- mass decrease, desorption cycle [3, 13]: about 2.33%
- post-DVS XRPD analysis ([3]; dihydrochloride monohydrate): No significant differences in polymorphic form
- solubility [5, 14]: < 10000 µg/mL
- solubility [5, 15]: < 10000 µg/mL
- Solubility at 40° C. ([5]; 2-Propanol:water (10%)): Moderate solubility
- solubility [5, 16]: < 10000 µg/mL
- solubility [5, 17]: < 10000 µg/mL
- solubility [5, 18]: ~25000 µg/mL
- Solubility at 40° C. ([5]; Acetone:Water (20%)): High solubility
- Solubility at 40° C. ([5]; Dimethylsulfoxide): very high solubility
- Solubility at 40° C. ([5]; Methanol): Moderate solubility
- Solubility at 40° C. ([5]; Water): very high solubility
- solubility [5, 19]: < 10000 µg/mL
- solubility [5, 20]: < 10000 µg/mL
- solubility [5, 21]: ~85000 µg/mL
- solubility [5, 22]: < 10000 µg/mL
- solubility [5, 23]: < 10000 µg/mL
- solubility [5, 24]: < 10000 µg/mL
- solubility [5, 25]: > 200000 µg/mL
- solubility [5, 26]: < 10000 µg/mL
- solubility [5, 27]: < 10000 µg/mL
- solubility [5, 28]: < 10000 µg/mL
- solubility [5, 29]: < 10000 µg/mL
- solubility [5, 30]: ~25000 µg/mL
- solubility [5, 31]: < 10000 µg/mL
- solubility [5, 32]: < 10000 µg/mL
- solubility [5, 33]: < 10000 µg/mL
- solubility [5, 34]: < 10000 µg/mL
- solubility [5, 35]: < 10000 µg/mL
- solubility [5, 36]: < 10000 µg/mL
- solubility ([5]; water): > 200000 µg/mL

Compound: CN1CCC2(CC1)NCC(=O)N2Cc1ccccc1.Cl [HCl mono-salt, 1-benzyl-8-methyl-1,4,8-triazaspiro-[4.5]-decan-2-one monohydrochloride]
- loss in purity by HPLC during stability studies ([2]; 1 week, all conditions): No significant loss in purity
- polymorphic form by XRPD after 1 week ([2]; 40° C./75% RH): deliquesced
- HPLC Purity T = One week ([2]; 40° C./75% RH, open vial): 99.4%
- Observations T = One week ([2]; 40° C./75% RH, open vial): Clear liquid
- polymorphic form by XRPD after 1 week ([2]; 80° C.): retained its polymorphic form
- HPLC Purity T = One week ([2]; 80° C., open vial): 99.5%
- Observations T = One week ([2]; 80° C., open vial): Off-white
- HPLC Purity T = One week [2, 10]: 98.6%
- Observations T = One week [2, 10]: White solid
- polymorphic form by XRPD after 1 week ([2]; ambient): retained its polymorphic form
- HPLC Purity T = 0 [2]: 98.8%
- Observations T = 0 [2]: White solid
- post-DVS XRPD analysis [3]: not consistent with any of the forms previously observed
- hygroscopicity by DVS ([3]; monohydrochloride): very hygroscopic above 70% RH; also recorded: deliquesced at high RH
- hysteresis [3]: 7.3%
- water uptake, sorption cycle ([3]; at 70% RH): 2.55%
- water uptake, sorption cycle ([3]; at 90% RH): 68.57%
- mass decrease, desorption cycle ([3]; between 10% and 0% RH): 6.10%
- mass decrease, desorption cycle ([3]; between 90% and 50% RH): 54.25%
- water uptake, sorption cycle ([3]; until 60% RH): about 0.27%
- solubility [5, 14]: < 10000 µg/mL
- solubility [5, 15]: < 10000 µg/mL
- Solubility at 40° C. ([5]; 2-Propanol:water (10%)): very high solubility
- solubility [5, 16]: < 10000 µg/mL
- solubility [5, 17]: < 10000 µg/mL
- solubility [5, 18]: > 200000 µg/mL
- Solubility at 40° C. ([5]; Acetone:Water (5%)): Some solubility
- Solubility at 40° C. ([5]; Acetone:Water (20%)): very high solubility
- Solubility at 40° C. ([5]; Dimethylacetamide): Some solubility
- Solubility at 40° C. ([5]; Dimethylsulfoxide): high solubility
- Solubility at 40° C. ([5]; Ethanol): Some solubility
- Solubility at 40° C. ([5]; Methanol): very high solubility
- Solubility at 40° C. ([5]; Water): very high solubility
- solubility [5, 19]: < 10000 µg/mL
- solubility [5, 20]: ~20000 µg/mL
- solubility [5, 21]: > 200000 µg/mL
- solubility [5, 22]: < 10000 µg/mL
- solubility [5, 23]: < 10000 µg/mL
- solubility [5, 24]: ~10000 µg/mL
- solubility [5, 25]: ~105000 µg/mL
- solubility [5, 26]: ~20000 µg/mL
- solubility [5, 27]: < 10000 µg/mL
- solubility [5, 28]: < 10000 µg/mL
- solubility [5, 29]: < 10000 µg/mL
- solubility [5, 30]: > 200000 µg/mL
- solubility [5, 31]: < 10000 µg/mL
- solubility [5, 32]: < 10000 µg/mL
- solubility [5, 33]: < 10000 µg/mL
- solubility [5, 34]: < 10000 µg/mL
- solubility [5, 35]: < 10000 µg/mL
- solubility [5, 36]: < 10000 µg/mL
- solubility ([5]; water): > 200000 µg/mL
